For one test, the system named is UACC-254. As to the kind of experiment: NCI SRB screen, UACC-254. The note with it: Homo sapiens, read-out: GI50 values.
A further test has as its system MDA-MB-468. As to the kind of experiment: NCI SRB screen, MDA-MB-468. The following applies: Homo sapiens, MDA-MB-468, read-out: GI50 values.

The results in this text go back to patent US9951049B2, “Pyrazole linked benzimidazole conjugates and a process for preparation thereof” (Council of Scientific & Industrial Reseach, priority 2014, dated 2018).

By GI50 is commonly meant the concentration giving 50% growth inhibition.

The structures appear in SMILES notation.

Regarding `Fc1ccc2[nH]c(-c3cc(-c4ccc5c(c4)OCO5)n[nH]3)nc2c1` [7g, 2-(3-(benzo[d][1,3]dioxol-5-yl)-1H-pyrazol-5-yl)-5-fluoro-1H-benzo[d]imidazole], the GI50 in the test with UACC-254 is 1020 nM.
As to `COc1ccc2[nH]c(-c3cc(-c4cc(OC)c(OC)c(OC)c4)n[nH]3)nc2c1` [9f, 5-methoxy-2-(3-(3,4,5-trimethoxyphenyl)-1H-pyrazol-5-yl)-1H-benzo[d]imidazole], in the test on MDA-MB-468, the concentration for 50% growth inhibition (GI50) came to 380 nM.
